For 5 molecules, α2δ binding affinity, binding affinities and melting point results are on record in US6596900B2, “Fused bicyclic or tricyclic amino acids” (Pfizer Inc, priority 2001, dated 2003).

The target in data set [1] is T1, α2δ subunit derived from porcine brain tissue (Sus scrofa, UniProt A0A287BIN3).
T1 construct: the α2δ subunit derived from porcine brain tissue; from tissue; host or cells: porcine brain tissue
The following applies: [3H]gabapentin radioligand; compounds of WO0128978 (prior application); cited from earlier work.

Data set [2] addresses T1, α2δ subunit derived from porcine brain tissue. In words: radioligand binding assay using [3H]gabapentin and the α2δ subunit. The settings on record: [3H]gabapentin radioligand binding assay described herein. The source says: wherein n is an integer of from 1 to 4, where there are stereocentres, each center may be independently R or S, preferred compounds being those of Formulae I-IV above in which n is an integer of from 2 to 4. The compounds are disclosed as being useful in treating a variety of disorders including epilepsy, faintness attacks, hypokinesia, cranial disorders, neurodegenerative disorders, depression, anxiety, panic, pain, neuropathological disorders, and sleep disorders. Certain of the compounds disclosed in that patent have high activity as measured in a radioligand binding assay using [^3H]gabapentin and the α2δ subunit derived from porcine brain tissue (Gee N. S., Brown J. P., Dissanayake V. U. K., Offord J., Thurlow R., Woodruff G. N., J. Biol. Chem., 1996;271:[…]). Results for some of the compounds are set out in the following table:
The biological activity of the compounds of the invention may be measured in a radioligand binding assay using [^3H]gabapentin and the α2δ subunit derived from porcine brain tissue (Gee N. S., Brown J. P., Dissanayake V. U. K., Offord J., Thurlow R., Woodruff G. N., ADVANCEADVANCE J. Biol. Chem., 1996;271:5879-[…]). Results may be expressed in terms of μM or nM α2δ binding affinity.

T1 sequence (A0A287BIN3 entry or part of it): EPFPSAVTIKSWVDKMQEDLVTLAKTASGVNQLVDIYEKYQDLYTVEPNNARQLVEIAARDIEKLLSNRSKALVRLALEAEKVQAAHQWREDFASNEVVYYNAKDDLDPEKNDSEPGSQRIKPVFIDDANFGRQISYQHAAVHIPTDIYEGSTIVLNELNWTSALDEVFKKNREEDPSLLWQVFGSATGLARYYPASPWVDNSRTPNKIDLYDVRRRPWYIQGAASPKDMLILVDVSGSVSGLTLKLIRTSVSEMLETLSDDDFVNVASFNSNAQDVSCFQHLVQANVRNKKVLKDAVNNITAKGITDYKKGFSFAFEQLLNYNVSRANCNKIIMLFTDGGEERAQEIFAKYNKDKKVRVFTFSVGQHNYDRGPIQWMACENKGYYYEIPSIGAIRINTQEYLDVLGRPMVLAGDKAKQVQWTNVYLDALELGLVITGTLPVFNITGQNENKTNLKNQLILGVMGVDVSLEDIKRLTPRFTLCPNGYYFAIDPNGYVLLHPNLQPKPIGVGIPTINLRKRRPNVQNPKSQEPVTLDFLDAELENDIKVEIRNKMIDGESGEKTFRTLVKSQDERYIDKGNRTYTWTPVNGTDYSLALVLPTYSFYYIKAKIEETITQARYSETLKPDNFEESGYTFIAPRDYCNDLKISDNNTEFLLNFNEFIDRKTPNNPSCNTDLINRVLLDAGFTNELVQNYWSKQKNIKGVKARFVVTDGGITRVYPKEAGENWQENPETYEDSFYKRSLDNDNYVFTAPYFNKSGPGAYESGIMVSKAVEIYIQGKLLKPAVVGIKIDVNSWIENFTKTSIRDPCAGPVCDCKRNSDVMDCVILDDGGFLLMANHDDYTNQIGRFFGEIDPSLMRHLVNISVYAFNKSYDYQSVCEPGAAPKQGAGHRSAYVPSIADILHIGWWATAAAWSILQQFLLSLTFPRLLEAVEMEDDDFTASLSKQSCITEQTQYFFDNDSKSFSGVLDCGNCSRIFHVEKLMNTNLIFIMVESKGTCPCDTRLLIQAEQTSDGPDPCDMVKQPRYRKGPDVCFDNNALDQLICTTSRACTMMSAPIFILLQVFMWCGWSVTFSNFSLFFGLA

Take `NC[C@@]1(CC(=O)O)C[C@H]2CC[C@H]2C1` [((1α, 3β, 5α)(3-Aminomethyl-bicyclo[3.2.0]hept-3-yl)-acetic acid]: the α2δ binding affinity in data set [1] was 0.332 µM.
Take `Cl.NC[C@]1(CC(=O)O)C[C@H]2CCCC[C@H]21` [Example 4, [(1R,6R,7S)-7-(Aminomethyl)bicyclo[4.2.0]oct-7-yl]acetic acid hydrochloride]: the binding affinities in data set [2] came to 600 nM.
In the case of `NC[C@]1(CC(=O)O)C[C@H]2CC[C@H]2C1` [(1α, 3α, 5α)(3-Aminomethyl-bicyclo[3.2.0]hept-3-yl)-acetic acid], the α2δ binding affinity in data set [1] is 0.038 µM.
`NCC1(CC(=O)O)C[C@H]2CC[C@@H]2C1` (racemic) [(+/−)-(1α, 5β)(3-Aminomethyl-bicyclo[3.2.0]hept-3-yl)-acetic acid]: the α2δ binding affinity in data set [1] is 2.86 µM.
Regarding `Cl.NC[C@]1(CC(=O)O)C[C@H]2CCC[C@H]21` [Example 1, [(1R,5R,6S)-6-(Aminomethyl)bicyclo[3.2.0]hept-6-yl]acetic acid hydrochloride], the melting point – broadly, the temperature, or range, at which the solid turns liquid – amounted to 198 °C. In addition, in data set [2], the binding affinities was found to be 46.8 nM.
